Data taken from PubChem BioAssay (NCI).
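How tested: cells in 96-well plates exposed to compound for 48 hours at five concentrations. TGI denotes the concentration required for complete inhibition of growth.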

How the values were obtained:
Test in all cases: growth of human tumour cells (NCI), 48 h
HCC-2998 colon = test system: HCC-2998 colon
MDA-MB-231 breast = test system: MDA-MB-231 breast
SK-OV-3 ovarian = test system: SK-OV-3 ovarian
CCRF-CEM leukemia = test system: CCRF-CEM leukemia
SF-295 CNS = test system: SF-295 CNS
MALME-3M melanoma = test system: MALME-3M melanoma
SR leukemia = test system: SR leukemia
EKVX NSCLC = test system: EKVX NSCLC
BT-549 breast = test system: BT-549 breast
OVCAR-3 ovarian = test system: OVCAR-3 ovarian
HCT-116 colon = test system: HCT-116 colon
786-0 renal = test system: 786-0 renal
RPMI-8226 leukemia = test system: RPMI-8226 leukemia
SF-268 CNS = test system: SF-268 CNS
MOLT-4 leukemia = test system: MOLT-4 leukemia
A498 renal = test system: A498 renal
HCT-15 colon = test system: HCT-15 colon
UACC-257 melanoma = test system: UACC-257 melanoma
KM12 colon = test system: KM12 colon

SMILES | TGI (HCC-2998 colon) [µM] | TGI (MDA-MB-231 breast) [µM] | TGI (SK-OV-3 ovarian) [µM] | TGI (CCRF-CEM leukemia) [µM] | TGI (SF-295 CNS) [µM] | TGI (MALME-3M melanoma) [µM] | TGI (SR leukemia) [µM] | TGI (EKVX NSCLC) [µM] | TGI (BT-549 breast) [µM] | TGI (OVCAR-3 ovarian) [µM] | TGI (HCT-116 colon) [µM] | TGI (786-0 renal) [µM] | TGI (RPMI-8226 leukemia) [µM] | TGI (SF-268 CNS) [µM] | TGI (MOLT-4 leukemia) [µM] | TGI (A498 renal) [µM] | TGI (HCT-15 colon) [µM] | TGI (UACC-257 melanoma) [µM] | TGI (KM12 colon) [µM]
CCOC(=O)C(NC(=O)c1cccc(Cl)c1)(N1CCN(c2cc3c(cc2F)c(=O)c(C(=O)O)cn3CC)CC1)C(F)(F)F (stereo not given) | 27.5 | 36.3 | 64.2 | 10.7 | 40 | 32.4 | 52.2 | 68.3 | 43.7 | 38.2 | 27.6 | 30.9 | 62.8 | 35.3 | 19.3 | 51 | 38.2 | 54.9 | 25.2
O=CC12CCCN1CCC2 | > 100 | > 100 | > 100 | > 100 | > 100 | > 100 | > 100 | > 100 | > 100 | > 100 | > 100 | > 100 | – | – | > 100 | – | > 100 | > 100 | –
O=C1CSC(c2cccc(Oc3ccccc3)c2)N1c1cc(Cl)ccc1Cl (stereo not given) | 28.6 | 43.3 | > 100 | > 100 | 55.3 | 57.6 | 44 | 80.9 | 35.6 | 51.2 | 34.4 | 36.9 | – | 39.5 | 57.8 | 70.7 | 58.6 | 50.1 | 79.2
O=C(NCc1ccc(Cl)c(Cl)c1)c1nc2ccccc2nc1NCc1ccc(Cl)c(Cl)c1 | > 100 | > 100 | – | > 100 | > 100 | – | > 100 | > 100 | > 100 | > 100 | > 100 | > 100 | – | > 100 | – | > 100 | > 100 | > 100 | > 100
FC(F)(Sc1nc2ccccc2[nH]1)c1nc2ccccc2o1 | > 100 | > 100 | > 100 | > 100 | > 100 | > 100 | > 100 | – | > 100 | > 100 | > 100 | > 100 | > 100 | > 100 | > 100 | > 100 | > 100 | > 100 | > 100
N#Cc1c2c(c(Nc3ccc(Cl)cc3)n3c1nc1ccccc13)CCCC2 | > 100 | > 100 | > 100 | > 100 | > 100 | > 100 | > 100 | > 100 | > 100 | > 100 | > 100 | > 100 | 36.1 | > 100 | > 100 | > 100 | > 100 | > 100 | > 100
CNC(=O)N(C)C(=O)c1ccccc1C(=O)N(C)C(=O)NC | > 10 | > 10 | > 10 | > 10 | > 10 | > 10 | > 10 | > 10 | > 10 | > 10 | > 10 | > 10 | > 10 | > 10 | > 10 | > 10 | > 10 | > 10 | > 10
C(/Cc1ccc2c(c1)OCO2)=N\NC1=NCCCCN1 | > 100 | > 100 | > 100 | > 100 | > 100 | > 100 | > 100 | > 100 | > 100 | > 100 | > 100 | > 100 | > 100 | > 100 | > 100 | 91.4 | > 100 | > 100 | > 100
COc1cc(CC2C(=O)OCC2Cc2ccc(OC)c(OC)c2)ccc1O (stereo not given) | – | > 100 | > 100 | > 100 | > 100 | > 100 | > 100 | > 100 | > 100 | > 100 | > 100 | > 100 | > 100 | > 100 | > 31.7 | > 100 | > 100 | > 100 | > 100
O=P1(C(O)c2ccccc2)N(Cc2ccccc2)[C@@H]2CCCC[C@H]2N1Cc1ccccc1 (stereo not given in full) | 50.4 | 53.8 | > 100 | > 100 | 56.6 | 73.1 | 49.9 | > 100 | > 100 | 91.3 | > 100 | 47.9 | – | 97.1 | 49.1 | – | > 100 | 56 | > 100
CCCCCNC(=O)OC1CCn2c1nc1c2C(=O)C(C)=C(N2CC2)C1=O (stereo not given) | 1.37 | 5.31 | – | > 100 | 2.69 | 4.27 | > 100 | – | 3.08 | 7.05 | 4.33 | 1.75 | > 100 | 4.84 | 43.8 | 3.31 | 4.45 | 3.22 | 3.48
CC1SCCc2nc3ccccc3n21 (stereo not given) | > 100 | > 100 | > 100 | > 100 | > 100 | – | > 100 | > 100 | > 100 | > 100 | > 100 | > 100 | > 100 | > 100 | > 100 | > 100 | > 100 | > 100 | > 100
CN(C)c1ccc(/C=C2\CCCCCC2=O)cc1 | > 100 | > 100 | > 100 | > 100 | > 100 | > 100 | > 100 | > 100 | > 100 | > 100 | > 100 | > 100 | > 100 | > 100 | > 100 | > 100 | – | > 100 | > 100
O=C(C[N+]1(c2ccccc2)CCOCC1)c1ccccc1 | > 100 | > 100 | – | – | > 100 | > 100 | > 100 | > 100 | > 100 | > 100 | > 100 | > 100 | – | > 100 | > 100 | > 100 | > 100 | > 100 | > 100
COc1ccc(-c2cc(-c3ccc(Nc4ccnc5cc(C(F)(F)F)ccc45)cc3)nc(N)c2C#N)c2ccccc12 | > 100 | > 100 | > 100 | – | > 100 | > 100 | > 100 | > 100 | > 100 | > 100 | > 100 | > 100 | > 100 | > 100 | > 100 | > 100 | > 100 | – | > 100
CCCCCCCCCCCCCCCC(=O)OCC(COP(=O)(O)OCCNC(=O)CCSSc1ccccn1)OC(=O)CCCCCCCCCCCCCCC (stereo not given) | – | > 100 | > 100 | > 100 | > 100 | > 100 | > 100 | > 100 | > 100 | > 100 | > 100 | > 100 | > 100 | > 100 | > 100 | > 100 | > 100 | > 100 | > 100
CC(=O)OC/C=C/Cn1nc(Br)c(=O)[nH]c1=O | > 100 | > 100 | – | > 100 | > 100 | > 100 | > 100 | > 100 | > 100 | > 100 | > 100 | > 100 | > 100 | > 100 | > 100 | > 100 | > 100 | > 100 | > 100
O=C(c1ccccc1)n1c2ccc(Br)cc2c2nc3ccccc3nc21 | > 100 | > 100 | – | > 100 | > 100 | > 100 | > 100 | > 100 | > 100 | > 100 | > 100 | > 100 | > 100 | > 100 | > 100 | – | > 100 | > 100 | > 100
COc1ccc(NC(=S)Nc2cccc(C)n2)cc1 | > 100 | > 100 | > 100 | > 100 | > 100 | – | > 100 | > 100 | > 100 | – | > 100 | > 100 | > 100 | > 100 | > 100 | > 100 | > 100 | > 100 | > 100
Cn1c(=O)c2c(n(C)c1=O)n1c(=O)c3ccccc3nc1n2C | > 100 | > 100 | > 100 | > 100 | > 100 | – | > 100 | > 100 | > 100 | > 100 | > 100 | > 100 | > 100 | > 100 | > 100 | > 100 | > 100 | > 100 | > 100
CO[C@@H](c1ccccc1)[C@H](O)[C@@](O)(c1ccccc1)P(=O)(OC)OC | – | > 100 | > 100 | > 100 | > 100 | > 100 | > 100 | > 100 | > 100 | > 100 | > 100 | > 100 | > 100 | > 100 | > 100 | > 100 | > 100 | > 100 | > 100
Nc1c(/C=C/c2cc3cc(C4=NCCN4)ccc3o2)[nH]c2cc(C3=NCCN3)ccc12 | > 100 | > 100 | > 100 | – | > 100 | – | > 100 | > 100 | > 100 | > 100 | > 100 | > 100 | > 100 | > 100 | > 100 | > 100 | > 100 | > 100 | > 100
COc1ccc(/[N+]([O-])=C/c2ccccc2OC(=S)S)cc1 | > 100 | > 100 | > 100 | – | > 100 | > 100 | > 100 | > 100 | 66.6 | > 100 | 73.5 | 65.5 | 61 | > 100 | > 100 | > 100 | > 100 | 97.1 | > 100
O=C1Cc2c([nH]c3c(Br)cccc23)-c2ccccc2N1 | > 100 | > 100 | > 100 | 35.6 | > 100 | > 100 | 55.3 | > 100 | > 100 | > 100 | – | > 100 | > 100 | > 100 | 43.6 | > 100 | > 100 | > 100 | > 100
Nc1nc(N)c2ncn(Cc3ccccc3)c2n1 | > 100 | > 100 | > 100 | > 100 | > 100 | > 100 | – | > 100 | > 100 | > 100 | > 100 | > 100 | > 100 | > 100 | > 100 | > 100 | > 100 | > 100 | > 100
Nc1nc2c(c(-c3ccc(F)cc3)n1)COC/C2=C\c1ccc(F)cc1 | > 100 | > 100 | > 100 | > 100 | > 100 | 35.1 | 43.2 | > 100 | > 100 | > 100 | – | – | > 100 | > 100 | > 100 | > 100 | > 100 | > 100 | 29
Clc1cc2ncn(C3CCCO3)c2cc1Cl (stereo not given) | > 100 | > 100 | > 100 | > 100 | > 100 | > 100 | > 100 | > 100 | 86.4 | > 100 | > 100 | > 100 | > 100 | > 100 | > 100 | – | > 100 | > 100 | > 100
